# From publication PMC5391474, “Investigation of the Role of Protein Kinase D in Human Rhinovirus Replication” (Journal of Virology, 2017)
# Tests used:
# PKD (PKD1) = target: T1, PKD (PKD1) (Homo sapiens, UniProt Q15139); test: in vitro kinase assay with purified recombinant kinase; also pS916 inhibition in PANC1 and HeLa cells; assay type: biochemical
# T1 construct: gene PRKD1
# KDR(h) = KDR(h) (Homo sapiens, UniProt P35968); test: biochemical; parameters: in vitro kinase selectivity panel, protein and lipid kinases, single concentration, ATP at Km; details: ATP at Km
# Procedure, shortened: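 Single-point screen against a protein and lipid kinase panel: inhibitor at 1 μM. ATP concentration for every kinase equivalent to its Km.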
# Chain of KDR(h) (P35968 whole entry): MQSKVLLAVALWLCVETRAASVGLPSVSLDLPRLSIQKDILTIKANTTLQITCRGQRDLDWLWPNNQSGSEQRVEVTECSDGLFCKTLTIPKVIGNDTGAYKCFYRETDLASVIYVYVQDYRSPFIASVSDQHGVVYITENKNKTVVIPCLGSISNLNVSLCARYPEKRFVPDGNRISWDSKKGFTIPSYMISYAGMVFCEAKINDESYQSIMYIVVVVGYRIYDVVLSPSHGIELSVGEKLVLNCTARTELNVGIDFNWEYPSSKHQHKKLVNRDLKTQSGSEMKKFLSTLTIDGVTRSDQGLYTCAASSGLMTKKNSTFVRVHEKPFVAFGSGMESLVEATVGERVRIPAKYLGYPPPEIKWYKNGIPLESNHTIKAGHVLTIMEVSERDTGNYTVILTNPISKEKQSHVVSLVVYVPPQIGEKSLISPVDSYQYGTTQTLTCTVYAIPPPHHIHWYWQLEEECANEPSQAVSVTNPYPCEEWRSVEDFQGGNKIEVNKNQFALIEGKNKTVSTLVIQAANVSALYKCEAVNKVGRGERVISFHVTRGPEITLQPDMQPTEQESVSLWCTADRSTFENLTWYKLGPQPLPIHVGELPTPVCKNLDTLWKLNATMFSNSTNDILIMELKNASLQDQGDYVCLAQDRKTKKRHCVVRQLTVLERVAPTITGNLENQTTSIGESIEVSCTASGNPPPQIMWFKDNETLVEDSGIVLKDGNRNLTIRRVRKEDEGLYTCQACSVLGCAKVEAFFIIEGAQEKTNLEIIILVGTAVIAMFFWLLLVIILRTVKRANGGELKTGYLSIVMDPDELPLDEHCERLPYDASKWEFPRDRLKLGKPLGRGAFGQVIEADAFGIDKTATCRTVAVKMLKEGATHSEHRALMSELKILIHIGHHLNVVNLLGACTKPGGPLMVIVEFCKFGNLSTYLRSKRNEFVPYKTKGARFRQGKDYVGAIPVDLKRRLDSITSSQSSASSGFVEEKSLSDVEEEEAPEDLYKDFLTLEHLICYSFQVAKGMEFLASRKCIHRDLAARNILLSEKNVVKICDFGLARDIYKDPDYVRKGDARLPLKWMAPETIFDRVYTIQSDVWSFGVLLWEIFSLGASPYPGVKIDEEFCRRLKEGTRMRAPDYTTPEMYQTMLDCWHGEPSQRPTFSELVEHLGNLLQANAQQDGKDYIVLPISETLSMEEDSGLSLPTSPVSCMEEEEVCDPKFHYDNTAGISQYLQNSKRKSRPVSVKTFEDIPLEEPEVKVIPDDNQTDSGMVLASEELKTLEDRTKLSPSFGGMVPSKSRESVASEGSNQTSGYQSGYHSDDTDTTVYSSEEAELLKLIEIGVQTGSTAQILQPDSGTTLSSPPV
# T1 sequence (Q15139 whole entry): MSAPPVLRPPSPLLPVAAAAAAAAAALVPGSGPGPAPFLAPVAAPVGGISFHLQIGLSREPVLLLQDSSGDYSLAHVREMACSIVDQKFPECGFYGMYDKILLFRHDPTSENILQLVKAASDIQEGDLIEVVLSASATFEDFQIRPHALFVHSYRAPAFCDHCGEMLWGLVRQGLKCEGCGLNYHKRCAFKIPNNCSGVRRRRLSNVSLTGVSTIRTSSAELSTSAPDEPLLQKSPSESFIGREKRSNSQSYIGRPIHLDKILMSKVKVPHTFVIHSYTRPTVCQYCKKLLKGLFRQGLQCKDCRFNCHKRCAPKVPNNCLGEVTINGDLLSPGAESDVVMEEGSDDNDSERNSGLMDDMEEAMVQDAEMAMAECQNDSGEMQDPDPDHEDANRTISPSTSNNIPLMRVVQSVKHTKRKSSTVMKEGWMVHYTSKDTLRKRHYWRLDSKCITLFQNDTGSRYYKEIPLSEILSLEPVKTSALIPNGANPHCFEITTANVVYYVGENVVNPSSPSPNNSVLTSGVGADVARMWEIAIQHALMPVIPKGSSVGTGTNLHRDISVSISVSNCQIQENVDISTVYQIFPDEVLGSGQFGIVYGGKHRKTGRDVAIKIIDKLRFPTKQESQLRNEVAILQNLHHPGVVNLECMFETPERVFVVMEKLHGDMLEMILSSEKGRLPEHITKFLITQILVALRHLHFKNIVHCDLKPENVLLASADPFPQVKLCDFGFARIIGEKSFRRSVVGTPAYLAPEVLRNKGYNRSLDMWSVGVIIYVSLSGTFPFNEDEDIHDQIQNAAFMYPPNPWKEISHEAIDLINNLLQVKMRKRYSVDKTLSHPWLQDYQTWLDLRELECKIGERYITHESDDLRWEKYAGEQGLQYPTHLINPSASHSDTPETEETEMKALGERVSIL
smiles,measurement,setting,value
CC[C@@H](N)CNc1ccnc(-c2cc(-c3cnn(C)c3)ccc2O)n1 [CRT0066101],IC50,PKD (PKD1),1 nM
same,inhibition at 1 µM,KDR(h),13%
